Measured values published in patent US10226509B2, “Lymphangiogenesis inhibitors for cancer and for graft survival” (TUFTS UNIVERSITY, priority 2014, dated 2019).

Experiments:
mouse corneas = assay: Corneal mouse micropocket lymphangiogenesis assay; type: in vivo; settings: for mean lymphatic vessel areas: 160 ng pellet, seven days
Protocol: The corneal micropocket lymphangiogenesis assay was performed using implants containing a test agent, hydron (polyhydroxylmethylmethacrylate), and sucralfate (Cao, R., et al. 2011. Nat Protoc 6:817-826; Rogers, M. S., et al. 2007. Nat Protoc 2:2545-2550). Test agents included full-length Gal-8 (40-320 ng/pellet) and VEGF-C (160 ng/pellet). Implants containing hydron and sucralfate alone served as negative controls. The mice were anesthetized by intraperitoneal injection of a mixture of ketamine (90-120 mg/kg) and xylazine (10 mg/kg). The eyes were topically anesthetized with proparacaine and were gently proptosed (forwardly displaced) with forceps. Using a corneal blade and a stereoscope, intrastromal linear keratotomy was performed about 2 mm from the limbus. Using a von Graefe knife (Miltex), a pocket was extended towards the limbus, and the pellet was maneuvered into the pocket. The wound was coated with a veterinary ophthalmic ointment (Akorn) to prevent infection. Mouse corneas were harvested 7 days after pellet implantation, fixed in 4% paraformaldehyde/PBS (1 hour at 4° C.), washed with PBS, and fixed again in iced acetone (15 min at −20° C.). To quantitate the extent of lymphangiogenesis in Prox-1-EGFP reporter mice, flat mounts of the dissected corneas were evaluated by fluorescence microscopy. Fluorescent images were acquired by EVOS FL cell imaging system (Invitrogen), and vessel areas were calculated using the formula (Rogers, M. S., et al. 2007. Nat Protoc 2:2545-2550): vessel area=pellet distance×vessel length×clock hours×[…]. To quantitate the extent of lymphangiogenesis in WT and PDPN-deficient mice, corneas were stained with eFluor 570-anti-mouse LYVE-1 (clone ALY7, eBioScience, and 1:75) in 10% goat serum/0.2% Triton X-100/PBS overnight, 4° C. After several washes with 0.2% Triton X-100/PBS, the corneas were flattened and mounted with VECTASHIELD mounting medium (Vector Laboratories) and evaluated by fluorescence microscopy. In some examples, for comparisons, corneas were stained with Alexa Fluor® 488-anti-mouse CD31 (clone MEC13.3, 1:100, BioLegend) to visualize blood vessels.

VEGF-C = target: T1, VEGF-C (Homo sapiens, UniProt P49767); assay: Affinity precipitation assay, VEGF-C; type: binding; settings: galectin-conjugated agarose beads
T1 construct: Primary LECs were incubated with agarose beads (control), and galectin-conjugated agarose beads at 4° C. overnight; endogenous in cells; host or cells: primary lymphatic endothelial cells (LECs)
T1 sequence (P49767 112-227): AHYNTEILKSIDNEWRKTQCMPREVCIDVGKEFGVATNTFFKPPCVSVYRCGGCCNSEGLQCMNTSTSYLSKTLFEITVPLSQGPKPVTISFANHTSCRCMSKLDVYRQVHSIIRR

PDPN and integrin α5β1 = target: T2, PDPN and integrin α5β1 (Homo sapiens, UniProt P05556+P08648+Q86YL7); assay: Immunoprecipitation with anti-PDPN from LEC lysates; type: cell-based; settings: galectin-8 for 15 min at 37° C.
T2 construct: endogenous in cells; host or cells: primary lymphatic endothelial cells (LECs)
T2 sequence (Q86YL7 23-162): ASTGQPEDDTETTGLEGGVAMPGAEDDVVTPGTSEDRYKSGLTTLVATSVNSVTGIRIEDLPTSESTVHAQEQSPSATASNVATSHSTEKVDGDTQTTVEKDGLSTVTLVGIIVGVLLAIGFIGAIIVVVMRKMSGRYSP
T2 sequence (P08648 42-894 limits assumed): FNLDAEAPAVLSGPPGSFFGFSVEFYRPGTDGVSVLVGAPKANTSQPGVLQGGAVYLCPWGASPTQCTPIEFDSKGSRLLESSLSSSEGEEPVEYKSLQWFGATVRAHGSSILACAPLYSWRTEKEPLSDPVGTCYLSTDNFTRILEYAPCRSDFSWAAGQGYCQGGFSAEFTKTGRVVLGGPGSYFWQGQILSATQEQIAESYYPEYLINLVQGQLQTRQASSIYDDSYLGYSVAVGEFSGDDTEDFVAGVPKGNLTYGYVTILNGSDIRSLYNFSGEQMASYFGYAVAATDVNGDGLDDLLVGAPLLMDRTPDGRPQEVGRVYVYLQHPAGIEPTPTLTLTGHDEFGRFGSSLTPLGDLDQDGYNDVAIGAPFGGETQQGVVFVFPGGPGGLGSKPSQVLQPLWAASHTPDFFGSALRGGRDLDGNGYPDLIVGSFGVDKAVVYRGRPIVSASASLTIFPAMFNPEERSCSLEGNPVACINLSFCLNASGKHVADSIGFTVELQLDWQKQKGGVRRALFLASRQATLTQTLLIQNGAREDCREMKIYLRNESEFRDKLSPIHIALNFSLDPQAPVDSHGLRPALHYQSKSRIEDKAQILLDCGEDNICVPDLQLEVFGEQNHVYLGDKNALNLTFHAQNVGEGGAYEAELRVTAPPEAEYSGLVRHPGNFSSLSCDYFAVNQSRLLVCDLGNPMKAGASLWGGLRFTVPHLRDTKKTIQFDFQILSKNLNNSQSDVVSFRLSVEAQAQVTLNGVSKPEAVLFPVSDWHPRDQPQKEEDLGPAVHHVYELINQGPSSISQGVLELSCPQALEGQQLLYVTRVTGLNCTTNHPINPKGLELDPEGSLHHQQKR
T2 sequence (P08648 895-1049 limits assumed): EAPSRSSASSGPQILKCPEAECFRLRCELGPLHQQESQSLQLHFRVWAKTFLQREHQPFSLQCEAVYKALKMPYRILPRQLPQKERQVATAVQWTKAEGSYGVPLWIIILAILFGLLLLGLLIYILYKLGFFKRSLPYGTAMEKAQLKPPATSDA
T2 sequence (P05556 21-798): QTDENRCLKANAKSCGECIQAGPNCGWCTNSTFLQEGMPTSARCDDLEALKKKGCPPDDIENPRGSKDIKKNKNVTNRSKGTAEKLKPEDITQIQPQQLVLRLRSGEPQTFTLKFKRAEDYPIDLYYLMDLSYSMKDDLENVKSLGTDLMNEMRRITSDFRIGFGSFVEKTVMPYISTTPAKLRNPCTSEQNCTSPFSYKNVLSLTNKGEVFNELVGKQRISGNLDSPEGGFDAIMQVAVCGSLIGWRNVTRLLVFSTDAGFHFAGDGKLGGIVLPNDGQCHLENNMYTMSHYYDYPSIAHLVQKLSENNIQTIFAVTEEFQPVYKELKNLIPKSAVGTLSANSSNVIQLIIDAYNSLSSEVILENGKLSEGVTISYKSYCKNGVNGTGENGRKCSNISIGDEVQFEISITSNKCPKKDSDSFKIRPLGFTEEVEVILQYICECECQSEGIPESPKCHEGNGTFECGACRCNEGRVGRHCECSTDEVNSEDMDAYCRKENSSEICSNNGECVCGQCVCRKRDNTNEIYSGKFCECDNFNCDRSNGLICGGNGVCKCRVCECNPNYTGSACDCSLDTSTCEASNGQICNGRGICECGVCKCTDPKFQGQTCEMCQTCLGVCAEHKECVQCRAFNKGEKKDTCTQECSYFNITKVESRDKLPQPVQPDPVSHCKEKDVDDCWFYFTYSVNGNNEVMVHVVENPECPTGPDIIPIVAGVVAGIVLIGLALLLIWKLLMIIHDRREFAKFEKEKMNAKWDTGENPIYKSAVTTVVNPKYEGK
Protocol: Mouse isotype antibody (15 μg, Santa Cruz Biotechnology) and anti-PDPN (15 μg, clone E-1, Santa Cruz Biotechnology) were immobilized onto AminoLink Plus coupling resin (Pierce) by sodium cyanoborohydride according to manufacturer's instructions. Primary LECs were serum-starved overnight and treated with galectin-8 (0.2 μM) for 15 min at 37° C. After treatment, cells were lysed with IP lysis/wash buffer (25 mM Tris, 150 mM NaCl, 1 mM EDTA, 1% NP-40, 5% glycerol; pH 7.4) supplemented with protease inhibitor cocktails (Roche). After centrifugation (10 min, 13,000 rpm), supernatants (500 μg protein lysates) were pre-cleared by incubation for 1 hour with Pierce control agarose resin at 4° C. The clarified samples were incubated with the Ab-conjugated agarose resins overnight at 4° C. Immunoprecipitates were washed three times with IP lysis/wash buffer and once with conditioning buffer provided by the kit (Pierce). The bound proteins were eluted with low pH elution buffer, neutralized with Tris-HCl (pH 9.0), and analyzed with control inputs by western blotting using anti-integrin al (1:1,000, Abcam), anti-integrin α5 (clone H-104, 1:1,000, Santa Cruz Biotechnology), anti-integrin ([…] (clone N-20, 1:1,000, Santa Cruz Biotechnology), anti-PDPN, anti-galectin-8 (clone NBP1-66520, 1:1,000, Novus Biologicals) and anti-GAPDH as described in examples herein. […]

PDPN = assay: Cell surface expression of PDPN by flow cytometry; type: cell-based, human; settings: 30 min post-treatment; Gal-8 0.2 μM
Protocol: (§1) Primary LECs were serum-starved overnight in basal EBM-2 medium. The cells were incubated with or without VEGF-C (50 ng/ml, PeproTech) or Gal-8 (0.2 μM) in serum-free EBM-2 medium for 10 and 30 min. At the end of the incubation period, cells were lifted with StemPro® Accutase® cell dissociation reagent (Invitrogen), washed with PBS and fixed with 4% paraformaldehyde/PBS on ice for 10 min, and were then stained using rat anti-human PDPN (1:500, BioLegend) and mouse anti-human VEGFR-3 (clone 9D9F9) (1:100, BioLegend) primary antibodies in cell staining buffer (BioLegend, 45 min on ice) and Alexa Fluor® 488 donkey anti-rat and Alexa Fluor® 647 anti-mouse secondary antibodies (1:1000, Invitrogen, 30 min on ice). For negative control, the primary antibodies were omitted. The stained cells were fixed with 2% paraformaldehyde/PBS, analyzed with BD FACSCalibur, and the mean fluorescence intensity of VEGFR-3 and PDPN were quantified with the FlowJo software (version 9.5.2).

VEGFR-3 = assay: Cell surface expression of VEGFR-3 by flow cytometry; type: cell-based, human; settings: Gal-8 0.2 μM or VEGF-C 50 ng/ml
Protocol: as §1

Gal-8: recombinant galectin-8, tandem-repeat type galectin with two different CRDs
mean lymphatic vessel areas (mouse corneas; PDPN KO mice): 0.28 mm^2 | mean lymphatic vessel areas (mouse corneas; WT mice): 0.78 mm^2 | lymphatic vessel growth, times higher than either VEGF-C pellet or Gal-8 pellet alone (mouse corneas; corneas implanted with both VEGF-C and Gal-8 pellets): 2.2 times | lymphangiogenesis induced by pellet in cornea (in words) (mouse corneas; one week after implantation, Gal-8 40-320 ng/pellet, VEGF-C 160 ng, WT or Prox1-EGFP mice): increased in a dose-dependent manner | effect of Gal-8 pellet on VEGF-C-induced lymphangiogenesis in vivo (in words) (mouse corneas; two separate pellets (VEGF-C and Gal-8), Prox1-EGFP reporter mice, one week): augmented VEGF-C-induced lymphangiogenesis | binding to VEGF-C (in words) (VEGF-C): does not interact with VEGF-C | association between PDPN and integrin α5β1 (PDPN and integrin α5β1): increased association between PDPN and integrin α5β1 | increase of cell surface expression of PDPN (PDPN): about 30% | decrease of cell surface expression of VEGFR-3 (VEGFR-3): about 10%
